What was measured:
[1] = target: Mitogen-activated protein kinase 14 (Homo sapiens, UniProt Q16539); assay: Inhibition of human recombinant p38alpha expressed in Escherichia coli using ATF2 as substrate by proprietary radioisotopic protein kinase assay
[2] = target: T1, TGF-beta receptor type-1 (Homo sapiens, UniProt P36897); assay: Inhibition of human recombinant GST-fused ALK5 expressed in Sf9 insect cells using casein as substrate by proprietary radioisotopic protein kinase assay
T1 sequence (P36897 whole entry): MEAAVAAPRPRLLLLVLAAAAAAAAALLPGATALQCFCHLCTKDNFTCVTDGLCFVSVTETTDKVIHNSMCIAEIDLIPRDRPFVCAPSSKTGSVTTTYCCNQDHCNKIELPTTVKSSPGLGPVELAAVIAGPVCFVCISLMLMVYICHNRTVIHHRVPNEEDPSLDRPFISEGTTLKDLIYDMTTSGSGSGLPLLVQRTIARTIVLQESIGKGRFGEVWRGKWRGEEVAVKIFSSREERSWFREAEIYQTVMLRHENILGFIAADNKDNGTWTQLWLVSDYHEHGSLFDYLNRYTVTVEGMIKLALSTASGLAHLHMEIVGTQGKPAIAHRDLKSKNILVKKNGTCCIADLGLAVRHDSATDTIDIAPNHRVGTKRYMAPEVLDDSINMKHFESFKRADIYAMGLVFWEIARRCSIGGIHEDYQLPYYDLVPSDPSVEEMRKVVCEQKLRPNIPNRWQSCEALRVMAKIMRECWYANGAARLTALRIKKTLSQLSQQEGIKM

Sequence of Mitogen-activated protein kinase 14 (Q16539 whole entry, the tested form may be a part): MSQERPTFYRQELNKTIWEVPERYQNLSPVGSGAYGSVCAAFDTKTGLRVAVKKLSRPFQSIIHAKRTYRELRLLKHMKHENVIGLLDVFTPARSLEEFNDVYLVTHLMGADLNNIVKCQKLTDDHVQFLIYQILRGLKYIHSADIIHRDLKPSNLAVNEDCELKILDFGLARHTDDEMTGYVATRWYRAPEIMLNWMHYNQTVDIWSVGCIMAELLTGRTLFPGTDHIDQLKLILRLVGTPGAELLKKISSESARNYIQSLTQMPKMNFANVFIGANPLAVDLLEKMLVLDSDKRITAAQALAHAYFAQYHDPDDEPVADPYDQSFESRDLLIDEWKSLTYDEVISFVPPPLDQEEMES

| Structure (SMILES) | IC50 [1] | IC50 [2] |
| --- | --- | --- |
| Cc1ccc(F)c(-c2[nH]c(CNc3ccccc3)nc2-c2ccc3ncnn3c2)n1 | 399 nM | 9.76 nM |
| C=Cc1cccc(NCc2nc(-c3ccc4ncnn4c3)c(-c3nc(C)ccc3F)[nH]2)c1 | 171 nM | 9.81 nM |
| Cc1cccc(-c2nn3c(c2-c2ccnc4ccc(C(N)=O)cc24)CCC3)n1 [GALUNISERTIB] | 405 nM | – |
| Cc1nc(-c2[nH]c(CNc3cccc(C(N)=O)c3)nc2-c2ccc3ncnn3c2)ccc1F | 1480 nM | 10.8 nM |
| Cc1ccc(F)c(-c2[nH]c(CNc3cccc(C#N)c3)nc2-c2ccc3ncnn3c2)n1 | 209 nM | 9.23 nM |
| Cc1nc(-c2[nH]c(CNc3ccccc3)nc2-c2ccc3ncnn3c2)ccc1F | 2040 nM | 9.23 nM |
| Cc1nc(-c2[nH]c(CNc3ccccc3F)nc2-c2ccc3ncnn3c2)ccc1F | 3370 nM | 12.5 nM |
| Cc1nc(-c2[nH]c(CNc3cccc(C#N)c3)nc2-c2ccc3ncnn3c2)ccc1F | 1240 nM | 7.68 nM |
| Cc1ccc(F)c(-c2[nH]c(CNc3ccccc3F)nc2-c2ccc3ncnn3c2)n1 | 766 nM | 12.1 nM |
| C=Cc1cccc(NCc2nc(-c3ccc4ncnn4c3)c(-c3ccc(F)c(C)n3)[nH]2)c1 | 1810 nM | 13.7 nM |
| Cc1cc(F)cc(-c2[nH]c(CNc3ccccc3F)nc2-c2ccc3ncnn3c2)n1 | > 10000 nM | 41.9 nM |
| Cc1ccc(F)c(-c2[nH]c(CNc3cccc(C(N)=O)c3)nc2-c2ccc3ncnn3c2)n1 | 251 nM | 11 nM |
| Cc1cc(F)cc(-c2[nH]c(CNc3ccccc3)nc2-c2ccc3ncnn3c2)n1 | > 10000 nM | 72.5 nM |

Source: ChEMBL document CHEMBL3632597, “Synthesis and biological evaluation of 5-(fluoro-substituted-6-methylpyridin-2-yl)-4-([1,2,4]triazolo[1,5-a]pyridin-6-yl)imidazoles as inhibitors of transforming growth factor-β type I receptor kinase” (Bioorg Med Chem Lett, 2015)
